Test results taken from US20190336489A1, “NON PEPTIDE HETEROBIVALENT MOLECULES FOR TREATING INFLAMMATORY DISEASES” (GLAXOSMITHKLINE INTELLECTUAL PROPERTY DEVELOPMENT LIMITED, priority 2017, published 2019).
Marks after values point to notes of the source that are not given here.

Assays:
Format in all cases: cell-based
[1] = molecular target: T1, CCR1 (Homo sapiens, UniProt P32246); test: Antibody Dependent Cellular Cytotoxicity (ADCC) reporter assay, CCR1 target cells; conditions: CHOK1 cells overexpressing CCR1; for EC50: Jurkat FcgRIIIa NFAT-luciferase reporter cells, EC50 class, read-out: ADCC potency; for ADCC efficacy: maximum signal:background (S/B)
T1 construct: expressed in transfected cells; host or cells: CHOK1
T1 sequence (P32246 1-355): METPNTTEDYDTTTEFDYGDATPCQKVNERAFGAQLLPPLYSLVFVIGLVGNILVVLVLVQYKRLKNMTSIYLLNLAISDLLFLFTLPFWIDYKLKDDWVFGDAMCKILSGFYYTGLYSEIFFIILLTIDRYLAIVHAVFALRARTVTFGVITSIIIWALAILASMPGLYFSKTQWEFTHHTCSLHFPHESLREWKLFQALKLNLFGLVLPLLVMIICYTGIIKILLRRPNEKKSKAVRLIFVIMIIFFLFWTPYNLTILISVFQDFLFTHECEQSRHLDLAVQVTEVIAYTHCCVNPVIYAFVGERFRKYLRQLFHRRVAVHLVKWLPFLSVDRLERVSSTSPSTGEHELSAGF
Text: (§1) The compounds described herein have been characterized in an ADCC reporter assay (see Section 1.2 ADCC reporter for protocol). […] Furthermore, the assay also confirms that this formed complex can engage and activate the Fc receptors on immune cells. Lastly, the assay provides both potency (EC50) and efficacy (signal to background ratio) for each compound in a dose dependant manner.
(§2) This assay has four components • 1) Heterobivalent Compound consisting of a targeting ligand and a hapten connected by a linker (ranging from 10 uM-1 pM) • 2) A hapten antibody with functional Fc domain (typical concentrations are 0.01 ug/mL-200 ug/mL) • 3) Target cells—CHOK1 cells engineered to overexpress either CCR1, CCR2, or CCR3, or CEMNKR cells engineered to overexpress CCR5 (typically 1000-20,000 cells per well) • 4) Reporter cells—Jurkat cells engineered to express FcgRIIIa (ADCC reporter assay) and with a reporter gene (luciferase) under the control of the NFAT promoter (typically 3000-75,000 cells per well)
(§3) Reagents are combined in final volume of 20 uL in 384-well tissue culture treated plated.
(§4) All components are incubated together for ˜12-18 hours. Add BioGlo Detection reagent (from Promega) to lyse the cells and provide substrate for the luciferase reporter protein. Signal is measured on a microplate reader capable of measuring luminescence. Signal:Background is calculated by dividing the signal of a test well by the signal obtained when no compound is included in the assay. EC50 calculations were done using Graphpad Prism Software, specifically a nonlinear regression curve fit (Y=Bottom+(Top−Bottom)/(1+10^((Log EC50−X)*HillSlope)))

[2] = molecular target: T2, CCR3 (Homo sapiens, UniProt P51677); test: Antibody Dependent Cellular Cytotoxicity (ADCC) reporter assay, CCR3 target cells; conditions: for EC50 / ADCC efficacy: CHOK1 cells overexpressing CCR3; for EC50: Jurkat FcgRIIIa NFAT-luciferase reporter cells, EC50 class, read-out: ADCC potency; for ADCC efficacy: maximum signal:background (S/B)
T2 construct: expressed in transfected cells; host or cells: CHOK1
T2 sequence (P51677 1-355): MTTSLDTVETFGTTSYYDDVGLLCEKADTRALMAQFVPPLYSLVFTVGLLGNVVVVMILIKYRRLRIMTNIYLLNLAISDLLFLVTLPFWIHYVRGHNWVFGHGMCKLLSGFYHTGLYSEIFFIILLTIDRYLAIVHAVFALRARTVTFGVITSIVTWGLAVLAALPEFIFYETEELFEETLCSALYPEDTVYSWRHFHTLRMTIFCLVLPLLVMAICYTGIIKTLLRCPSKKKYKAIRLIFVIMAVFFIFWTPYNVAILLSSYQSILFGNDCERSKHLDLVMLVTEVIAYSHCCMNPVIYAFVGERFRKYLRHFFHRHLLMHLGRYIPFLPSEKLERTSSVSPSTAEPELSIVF
Text: as §1, §2, §3, §4

[3] = molecular target: T3, CCR2 (Homo sapiens, UniProt P41597); test: Antibody Dependent Cellular Cytotoxicity (ADCC) reporter assay, CCR2 target cells; conditions: CHOK1 cells overexpressing CCR2
T3 construct: expressed in transfected cells; host or cells: CHOK1
T3 sequence (P41597 whole entry, species assumed): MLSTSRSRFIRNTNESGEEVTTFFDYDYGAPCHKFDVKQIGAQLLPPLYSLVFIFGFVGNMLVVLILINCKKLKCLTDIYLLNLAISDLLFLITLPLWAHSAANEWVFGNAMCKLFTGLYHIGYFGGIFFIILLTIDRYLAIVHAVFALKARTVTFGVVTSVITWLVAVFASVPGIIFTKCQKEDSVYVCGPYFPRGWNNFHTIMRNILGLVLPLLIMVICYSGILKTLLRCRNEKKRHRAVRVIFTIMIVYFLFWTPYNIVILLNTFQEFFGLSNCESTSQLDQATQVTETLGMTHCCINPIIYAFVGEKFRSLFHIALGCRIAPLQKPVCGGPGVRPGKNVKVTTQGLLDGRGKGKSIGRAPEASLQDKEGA
Text: as §1, §2, §3, §4

[4] = molecular target: T4, CCR5 (Homo sapiens, UniProt P51681); test: Antibody Dependent Cellular Cytotoxicity (ADCC) reporter assay, CCR5 target cells; conditions: CEMNKR cells overexpressing CCR5
T4 construct: expressed in transfected cells; host or cells: CEMNKR
T4 sequence (P51681 whole entry): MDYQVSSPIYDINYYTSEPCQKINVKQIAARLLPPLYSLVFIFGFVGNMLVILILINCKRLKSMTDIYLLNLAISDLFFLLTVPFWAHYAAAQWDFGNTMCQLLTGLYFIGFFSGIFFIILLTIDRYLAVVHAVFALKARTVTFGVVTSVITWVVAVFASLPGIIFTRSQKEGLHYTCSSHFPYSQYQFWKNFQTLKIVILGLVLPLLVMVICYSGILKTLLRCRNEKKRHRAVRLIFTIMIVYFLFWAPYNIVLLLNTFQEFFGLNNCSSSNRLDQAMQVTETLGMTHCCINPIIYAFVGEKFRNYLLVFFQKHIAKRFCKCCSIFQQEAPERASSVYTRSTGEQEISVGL
Text: as §1, §2, §3
All components are incubated together for ˜12-18 hours. […] Signal is measured on a microplate reader capable of measuring luminescence. Signal:Background is calculated by dividing the signal of a test well by the signal obtained when no compound is included in the assay. […]

[5] = Jurkat FcgRIIIa NFAT-luciferase reporter cells, EC50 class, read-out: ADCC potency
[6] = maximum signal:background (S/B)

Structure (SMILES): CC(C)[C@@H](NC(=O)c1cccc(C(=O)NCCOCCOCCOCCOCCNC(=O)CCCC[C@@H]2SC[C@@H]3NC(=O)N[C@@H]32)c1)C(=O)N1CCC(c2ccc(Cl)cc2)CC1 [Compound 2, N1-((R)-1-(4-(4-chlorophenyl)piperidin-1-yl)-3-methyl-1-oxobutan-2-yl)-N3-(16-oxo-20-((3aS,4S,6aR)-2-oxohexahydro-1H-thieno[3,4-d]imidazol-4-yl)-3,6,9,12-tetraoxa-15-azaicosyl)isophthalamide]
- EC50 [1]: 100 to 1000 nM
- ADCC efficacy [1]: ++^d (between 9-11 = ++)

Structure (SMILES): CCCCN1C(=O)[C@@H]([C@H](O)C2CCCCC2)NC(=O)C12CCN(Cc1ccc(Oc3ccc(C(=O)NCCOCCOCCOCCOCCOCCOCCOCCOCCOCCNC(=S)Nc4ccc5c(c4)C(=O)OC54c5ccc(O)cc5Oc5cc(O)ccc54)cc3)cc1)CC2 [Compound 25, 4-(4-(((R)-1-butyl-3-((R)-cyclohexyl(hydroxy)methyl)-2,5-dioxo-1,4,9-triazaspiro[5.5]undecan-9-yl)methyl)phenoxy)-N-(1-((3′,6′-dihydroxy-3-oxo-3H-spiro[isobenzofuran-1,9′-xanthen]-5-yl)amino)-1-thioxo-5,8,11,14,17,20,23,26,29-nonaoxa-2-azahentriacontan-31-yl)benzamide]
- EC50 [2]: 1 to 10 nM
- ADCC efficacy [2]: +++^f (Maximum S:B > 20 = +++)

Structure (SMILES): O=C(NCc1ccc(C(=O)NCCCOCCOCCOCCCNc2ccc([N+](=O)[O-])cc2[N+](=O)[O-])cc1)NC[C@@H]1CN(Cc2ccc(Cl)c(Cl)c2)CCO1 [Compound 21, (R)-4-((3-((4-(3,4-dichlorobenzyl)morpholin-2-yl)methyl)ureido)methyl)-N-(3-(2-(2-(3-((2,4-dinitrophenyl)amino)propoxy)ethoxy)ethoxy)propyl)benzamide]
- EC50 [2]: < 1 nM
- ADCC efficacy [2]: +++^f (Maximum S:B > 20 = +++)

Structure (SMILES): CC(C)[C@@H](NC(=O)c1cccc(C(=O)NCCOCCOCCOCCOCCOCCOCCOCCOCCC(=O)NCCOCCOCCOCCOCCOCCOCCOCCOCCOCCOCCOCCNC(=O)CCCC[C@@H]2SC[C@@H]3NC(=O)N[C@@H]32)c1)C(=O)N1CCC(c2ccc(Cl)cc2)CC1 [Compound 5, N1-((R)-1-(4-(4-chlorophenyl)piperidin-1-yl)-3-methyl-1-oxobutan-2-yl)-N3-(27,65-dioxo-69-((3aS,4S,6aR)-2-oxohexahydro-1H-thieno[3,4-d]imidazol-4-yl)-3,6,9,12,15,18,21,24,31,34, 37,40,43,46,49,52,55,58,61-nonadecaoxa-28,64-diazanonahexacontyl)isophthalamide]
- EC50 [1]: 100 to 1000 nM
- ADCC efficacy [1]: +^d (between 6-8 = +)

Structure (SMILES): CC(C)(C)N1CCNC(C(=O)N2CCN(C(=O)Nc3nc(C(F)(F)F)c(Cl)s3)C(CCOC(=O)NCCOCCOCCOCCOCCOCCOCCOCCOCCOCCNc3ccc([N+](=O)[O-])cc3[N+](=O)[O-])C2)C1 (mixture of isomers) [Compound 18, 2-(4-(4-(Tert-butyl)piperazine-2-carbonyl)-1-((5-chloro-4-(trifluoromethyl)thiazol-2-yl)carbamoyl)piperazin-2-yl)ethyl (29-((2,4-dinitrophenyl)amino)-3,6,9,12,15,18,21,24,27-nonaoxanonacosyl)carbamate]
- EC50 [3, 5]: < 1 nM
- ADCC efficacy [3, 6]: +++^e (Maximum Signal:Background > 10 = +++)
- efficacy signal ([2]; ADCC reporter assay): robust
- potency ([2]; ADCC reporter assay): nanomolar range

Structure (SMILES): O=C(NCc1ccc(C(=O)NCCCOCCOCCOCCCNC(=S)Nc2ccc(-c3c4ccc(=O)cc-4oc4cc(O)ccc34)c(C(=O)O)c2)cc1)NC[C@H]1CN(Cc2ccc(Cl)c(Cl)c2)CCO1 [Compound 22, (S)-5-(3-(1-(4-((3-((4-(3,4-Dichlorobenzyl)morpholin-2-yl)methyl)ureido)methyl)phenyl)-1-oxo-6,9,12-trioxa-2-azapentadecan-15-yl)thioureido)-2-(6-hydroxy-3-oxo-3H-xanthen-9-yl)benzoic acid]
- EC50 [2]: 1 to 10 nM
- ADCC efficacy [2]: +++^f (Maximum S:B > 20 = +++)

Structure (SMILES): O=C(CCC(=O)N[C@H]1CC[C@H](NC(=O)c2ccc(CNC(=O)NC[C@H]3CN(Cc4ccc(Cl)c(Cl)c4)CCO3)cc2)CC1)NCCCOCCOCCOCCCNc1ccc([N+](=O)[O-])cc1[N+](=O)[O-] [Compound 23, N1-((Trans)-4-(4-((3-(((S)-4-(3,4-Dichlorobenzyl)morpholin-2-yl)methyl)ureido)methyl)benzamido)cyclohexyl)-N4-(3-(2-(2-(3-((2,4-dinitrophenyl)amino)propoxy)ethoxy)ethoxy)propyl)succinamide]
- EC50 [2]: < 1 nM
- ADCC efficacy [2]: +++^f (Maximum S:B > 20 = +++)

Structure (SMILES): O=C(NCc1ccc(C(=O)NCCOCCOCCOCCOCCOCCOCCOCCOCCOCCNc2ccc([N+](=O)[O-])cc2[N+](=O)[O-])cc1)NC[C@H]1CN(Cc2ccc(Cl)c(Cl)c2)CCO1 [Compound 20, (S)-4-((3-((4-(3,4-dichlorobenzyl)morpholin-2-yl)methyl)ureido)methyl)-N-(29-((2,4-dinitrophenyl)amino)-3,6,9,12,15,18,21,24,27-nonaoxanonacosyl)benzamide]
- EC50 [2]: < 1 nM
- ADCC efficacy [2]: +++^f (Maximum S:B > 20 = +++)
- EC50 [4, 5]: < 1 nM
- ADCC efficacy [4, 6]: +++^g (Maximum Signal:Background > 70 = +++)

Structure (SMILES): CC(C)[C@@H](NC(=O)c1cccc(C(=O)NCCOCCOCCOCCOCCC(=O)NCCOCCOCCOCCOCCOCCOCCOCCOCCOCCOCCOCCNC(=O)CCCC[C@@H]2SC[C@@H]3NC(=O)N[C@@H]32)c1)C(=O)N1CCC(c2ccc(Cl)cc2)CC1 [Compound 4, N1-((R)-1-(4-(4-chlorophenyl)piperidin-1-yl)-3-methyl-1-oxobutan-2-yl)-N3-(15,53-dioxo-57-((3aS,4S,6aR)-2-oxohexahydro-1H-thieno[3,4-d]imidazol-4-yl)-3,6,9,12,19,22,25,28,31,34, 37,40,43,46,49-pentadecaoxa-16,52-diazaheptapentacontyl)isophthalamide]
- EC50 [1]: 100 to 1000 nM
- ADCC efficacy [1]: ++^d (between 9-11 = ++)

Structure (SMILES): CC(C)[C@@H](NC(=O)c1cccc(C(=O)NCCOCCOCCOCCOCCOCCOCCOCCOCCOCCOCCOCCNC(=O)CCCC[C@@H]2SC[C@@H]3NC(=O)N[C@@H]32)c1)C(=O)N1CCC(c2ccc(Cl)cc2)CC1 [Compound 1, N1-((R)-1-(4-(4-chlorophenyl)piperidin-1-yl)-3-methyl-1-oxobutan-2-yl)-N3-(37-oxo-41-((3aS,4S,6aR)-2-oxohexahydro-1H-thieno[3,4-d]imidazol-4-yl)-3,6,9,12,15,18,21,24,27,30,33-undecaoxa-36-azahentetracontyl)isophthalamide]
- EC50 [1]: 10 to 100 nM
- ADCC efficacy [1]: +++^d (maximum signal:background > 11 = +++)

Structure (SMILES): CC(C)[C@@H](NC(=O)c1cccc(C(=O)NCCOCCOCCOCCOCCOCCOCCOCCNC(=O)CCCC[C@@H]2SC[C@@H]3NC(=O)N[C@@H]32)c1)C(=O)N1CCC(c2ccc(Cl)cc2)CC1 [Compound 3, N1-((R)-1-(4-(4-chlorophenyl)piperidin-1-yl)-3-methyl-1-oxobutan-2-yl)-N3-(25-oxo-29-((3aS,4S,6aR)-2-oxohexahydro-1H-thieno[3,4-d]imidazol-4-yl)-3,6,9,12,15,18,21-heptaoxa-24-azanonacosyl)isophthalamide]
- EC50 [1]: 10 to 100 nM
- ADCC efficacy [1]: ++^d (between 9-11 = ++)
